Experimental data reported in patent US6573274B1, “Sulfonamide compounds and uses thereof as medicines” (Fujisawa Pharmaceutical Co. Ltd., priority 1998, dated 2003).

Tests used:
[1] = test system: db/db mice; details: female db/db mice; Dose 1 mg/kg, drug mixed with diet; difference between db/db control group and +/+ mice taken as 100%
Procedure: Blood Sugar Level Depressing Activity in db/db Mice
Female C57BL/KsJ-dbm db+/db+, C57BL/KsJ-dbm +m/+m (Jackson Laboratory) mice (5 weeks old) were purchased and subjected to the test after 2-3 weeks of acclimating period.
The test drug was mixed with a powder diet (CE-2, Clea Japan, Inc.) in a mortar. In the case of administration in 100 mg/kg, the mixing proportion was 0.1%, in the case of 30 mg/kg, the proportion was 0.03% and in the case of 10 mg/kg, the proportion was 0.01%. The diet was changed twice a week for each group. The amount of the diet given and the amount left were recorded and the diet intake was calculated by determining the difference.
The female db/db mice were grouped according to body weight, blood sugar level and triglyceride concentration in plasma. […] The blood sugar level, triglyceride concentration in plasma and insulin concentration in plasma were measured at day 0 and day 14, and blood sugar level and triglyceride concentration in blood were measured at day 7.
Blood sugar level was measured using 10-15 μl of plasma and in accordance with glucose oxidase method (glucose CII-Test Wako, Wako Pure Chemicals Co., Ltd.). The triglyceride concentration in plasma was measured using 10-15 μl of plasma and in accordance with GPO-p-chlorophenol method (triglyceride G-Test Wako) or GPO-DAOS method (triglyceride E-Test Wako). […]

[2] = Oral absorption (Cmax) in dogs; type: in vivo; details: sodium salt compared to the free compound
[3] = Oral absorption (Cmax) in rats; type: in vivo; details: sodium salt compared to the free compound

melting point [°C] | Compound | also measured
> 250 | CCCCCS(=O)(=O)NC(=O)c1ccc2nc(C)n(Cc3ccc(OCC4CCCCC4)cc3Cl)c2n1.[Na] [Example 85, 3-[2-chloro-4-(cyclohexylmethyloxy)benzyl]-2-methyl-5-(1-pentanesulfonylcarbamoyl)-3H-imidazo[4,5-b]pyridine sodium salt] | Cmax, times greater than the free (non-salt) compound [2]: about 16 times; Cmax, times greater than the free (non-salt) compound ([3]; rats, oral): 2 to 3 times; oral absorption as compared to the free (non-salt) compound ([3]; demonstrated by Cmax in rats and dogs): markedly improved
208 to 209 | CCCNS(=O)(=O)NC(=O)c1ccc2nc(C)n(Cc3ccc(-c4ccccc4)cc3Cl)c2n1 [Example 60, 3-(2-chloro-4-phenylbenzyl)-2-methyl-5-[(1-propylaminosulfonyl)carbamoyl]-3H-imidazo[4,5-b]pyridine] | –
129 to 130 | CCCCCS(=O)(=O)NC(=O)c1ccc2nc(C)n(Cc3ccc(N(C)CCCC)cc3Cl)c2n1 [Example 45, 3-(4-((1-butyl)methylamino)-2-chlorobenzyl)-2-methyl-5-(1-pentanesulfonylcarbamoyl)-3H-imidazo[4,5-b]pyridine] | –
169 to 170 | CCCCCS(=O)(=O)NC(=O)c1ccc2nc(C)n(Cc3ccc(N(C)CC4CCCCC4)cc3Cl)c2n1 [Example 53, 3-(2-chloro-4-(N-(cyclohexylmethyl)methylamino)benzyl)-2-methyl-5-(1-pentanesulfonylcarbamoyl)-3H-imidazo[4,5-b]pyridine] | –
155 to 156 | CCCCCS(=O)(=O)NC(=O)c1ccc2nc(C)n(Cc3ncc(Cl)cc3Cl)c2n1 [Example 123, 3-[(3,5-dichloropyridin-2-yl)methyl]-2-methyl-5-(1-pentanesulfonylcarbamoyl)-3H-imidazo[4,5-b]pyridine] | –
140 to 142 | CCCCCOc1ccc(Cn2c(CC)nc3ccc(C(=O)NS(=O)(=O)CCCC)nc32)c(Cl)c1 [Example 66, 5-(1-butanesulfonylcarbamoyl)-3-(2-chloro-4-(1-pentyloxy)benzyl)-2-ethyl-3H-imidazo[4,5-b]pyridine] | –
187 to 189 | CCC/C=C/S(=O)(=O)NC(=O)c1ccc2nc(C)n(Cc3ccc(NC(=O)OC(C)C)cc3Cl)c2n1 [Example 102, 3-(2-chloro-4-(N-(isopropoxycarbonyl)amino)benzyl)-2-methyl-5-((E)-1-penten-1-ylsulfonylcarbamoyl)-3H-imidazo[4,5-b]pyridine] | –

More lines, now with the values behind:

Compound | melting point [°C] | also measured
CCCOc1ccc(Cn2c(C)nc3c(C)cc(C(=O)NS(=O)(=O)c4ccc(C)cc4)nc32)c(Cl)c1 [Compound A, 3-(2-Chloro-4-(1-propoxy)benzyl)-2,7-dimethyl-5-[(4-methylbenzene)sulfonylcarbamoyl]-3H-imidazo[4,5-b]pyridine] | – | Blood sugar decrease (%) [1]: 97%
CCCCCS(=O)(=O)NC(=O)c1ccc2nc(C)n(Cc3ccc(OCC)cc3Cl)c2n1 [Example 8, 3-(2-chloro-4-ethoxybenzyl)-2-methyl-5-(1-pentanesulfonylcarbamoyl)-3H-imidazo[4,5-b]pyridine] | 165 to 166 | –
Cc1cc(C(=O)NS(=O)(=O)c2ccc(Br)s2)nc2c1nc(C)n2Cc1ccc(-c2ccccc2)cc1Cl.[Na] | > 250 | –
CCCCCS(=O)(=O)NC(=O)c1cc(C)c2nc(C)n(Cc3ccc(N(CC)C(=O)OC(C)(C)C)cc3Cl)c2n1 [Example 81, 3-[4-(N-(tert-butoxycarbonyl)-N-ethylamino)-2-chlorobenzyl]-2,7-dimethyl-5-(1-pentanesulfonylcarbamoyl)-3H-imidazo[4,5-b]pyridine] | 190 to 191 | –
CCCCCS(=O)(=O)NC(=O)c1ccc2nc(C)n(Cc3ccc(N(C)CCC)cc3Cl)c2n1 [Example 44, 3-(2-chloro-4-(methyl-(1-propyl)amino)benzyl)-2-methyl-5-(1-pentanesulfonylcarbamoyl)-3H-imidazo[4,5-b]pyridine] | 129 to 130 | –
CCCCS(=O)(=O)NC(=O)c1ccc2nc(C)n(Cc3ccc(OCC)cc3Cl)c2n1 [Example 9, 5-(1-butanesulfonylcarbamoyl)-3-(2-chloro-4-ethoxybenzyl)-2-methyl-3H-imidazo[4,5-b]pyridine] | 151 to 152 | –
CCCCCOc1ccc(Cn2c(C)nc3ccc(C(=O)NS(=O)(=O)c4ccc(Br)s4)nc32)c(Cl)c1 [Example 23, 5-[(5-bromothiophen-2-yl)sulfonylcarbamoyl]-3-[2-chloro-4-(1-pentyloxy)benzyl]-2-methyl-3H-imidazo[4,5-b]pyridine] | 156 to 157 | –
CCCCS(=O)(=O)NC(=O)c1ccc2nc(C)n(Cc3ccc(OCC4CCCC4)cc3Cl)c2n1 [Example 28, 5-(1-butanesulfonylcarbamoyl)-3-(2-chloro-4-((cyclopentylmethyl)oxy)benzyl)-2-methyl-3H-imidazo[4,5-b]pyridine] | 180 to 181 | –
